The values that follow come from publication PMC4376353 (Angewandte Chemie (International ed. in English), 2015).

Assay [1] addresses T1, LanGT2 (Streptomyces cyanogenus, UniProt Q9ZGC0).
T1 sequence (Q9ZGC0 1-373): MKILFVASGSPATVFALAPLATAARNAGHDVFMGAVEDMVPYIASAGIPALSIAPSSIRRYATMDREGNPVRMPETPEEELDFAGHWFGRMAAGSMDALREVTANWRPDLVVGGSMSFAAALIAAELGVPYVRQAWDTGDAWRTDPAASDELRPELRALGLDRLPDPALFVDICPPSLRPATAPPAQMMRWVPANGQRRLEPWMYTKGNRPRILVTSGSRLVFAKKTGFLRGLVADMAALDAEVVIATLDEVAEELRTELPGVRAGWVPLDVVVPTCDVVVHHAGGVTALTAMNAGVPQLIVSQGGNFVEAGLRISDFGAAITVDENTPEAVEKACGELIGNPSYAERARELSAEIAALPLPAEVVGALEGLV
In words: X-ray crystal structure. The class given is binding. The conditions noted are these: nucleotide-sugar site; TDP-olivose had broken down, product TDP bound.

For assay [2], the target named is T1, LanGT2. In words: X-ray crystal structure. Format: binding. The conditions noted are these: non-hydrolyzable substrate analogue; nucleotide-sugar site; 1.85 Å.

Take `Cc1cn([C@H]2C[C@H](O)[C@@H](COP(=O)(O)OP(=O)(O)O)O2)c(=O)[nH]c1=O` [TDP]: the “X-ray crystal structure (crystals treated with TDP-olivose)” value on LanGT2 [1] is on record as “thus resulting in structures that invariably only had the product TDP bound”.
With `Cc1cn([C@H]2C[C@H](O)[C@@H](COP(=O)(O)OP(=O)(O)O[C@@H]3C[C@@H](O)[C@H](O)[C@@H](C)C3)O2)c(=O)[nH]c1=O` [compound 8, TDP-carba-D-olivose], at LanGT2 [2], the “X-ray crystal structure (crystal soaking)” value was “LanGT2 crystals were soaked with the synthetic TDP-carba-D-olivose (TcO)”.
